Laboratory results taken from PubChem BioAssay (NCI).
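Test compounds were applied to cells in 96-well plates for 48 hours at 5 doses. GI50 = concentration required for 50% inhibition of growth. TGI is the concentration that stops growth completely.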

How the values were obtained:
Assay in all cases: DTP human tumour cell line panel, 48 h
[1] = tested on: SN12C renal
[2] = tested on: K-562 leukemia
[3] = tested on: M14 melanoma
[4] = tested on: CCRF-CEM leukemia
[5] = tested on: UACC-257 melanoma
[6] = tested on: HT29 colon
[7] = tested on: HCT-15 colon
[8] = tested on: HCC-2998 colon
[9] = tested on: HOP-62 NSCLC
[10] = tested on: KM12 colon
[11] = tested on: RPMI-8226 leukemia
[12] = tested on: HCT-116 colon
[13] = tested on: NCI-H460 lung
[14] = tested on: OVCAR-4 ovarian
[15] = tested on: HOP-92 NSCLC
[16] = tested on: TK-10 renal
[17] = tested on: NCI-H226 lung
[18] = tested on: MDA-MB-435
[19] = tested on: NCI-H23 lung
[20] = tested on: MCF7 breast
[21] = tested on: MALME-3M melanoma
[22] = tested on: SF-295 CNS
[23] = tested on: U251 CNS
[24] = tested on: A549 NSCLC
[25] = tested on: IGROV1 ovarian
[26] = tested on: LOX IMVI melanoma
[27] = tested on: SK-MEL-2 melanoma
[28] = tested on: CAKI-1 renal
[29] = tested on: A498 renal
[30] = tested on: SF-268 CNS
[31] = tested on: SNB-75 CNS
[32] = tested on: ACHN renal
[33] = tested on: OVCAR-5 ovarian
[34] = tested on: MOLT-4 leukemia
[35] = tested on: SR leukemia
[36] = tested on: NCI/ADR-RES ovarian
[37] = tested on: UACC-62 melanoma
[38] = tested on: MDA-MB-468 breast
[39] = tested on: OVCAR-8 ovarian
[40] = tested on: EKVX NSCLC
[41] = tested on: DU-145 prostate
[42] = tested on: SK-MEL-28 melanoma
[43] = tested on: COLO 205 colon
[44] = tested on: T-47D breast
[45] = tested on: SK-OV-3 ovarian
[46] = tested on: RXF 393 renal
[47] = tested on: OVCAR-3 ovarian
[48] = tested on: SK-MEL-5 melanoma
[49] = tested on: SNB-19 CNS
[50] = tested on: BT-549 breast
[51] = tested on: MDA-MB-231 breast
[52] = tested on: NCI-H522 lung
[53] = tested on: 786-0 renal
[54] = tested on: SF-539 CNS
[55] = tested on: HS 578T breast
[56] = tested on: UO-31 renal
[57] = tested on: PC-3 prostate
[58] = tested on: SW-620 colon
[59] = tested on: HL-60(TB) leukemia

## Nc1nnc(-c2c[nH]c3ncc(Br)cc23)c(-c2c[nH]c3ccc(Br)cc23)n1
[1]
  GI50: 7.31 µM
  TGI: 23.6 µM
[2]
  GI50: 0.497 µM
  TGI: 16.8 µM
[3]
  GI50: 4.67 µM
  TGI: 22.2 µM
[4]
  GI50: 2.33 µM
  TGI: > 100 µM
[5]
  GI50: 12.4 µM
  TGI: 29.7 µM
[6]
  GI50: 5.74 µM
  TGI: 26 µM
[7]
  GI50: 4.41 µM
  TGI: 19.1 µM
[8]
  GI50: 14 µM
  TGI: 28.9 µM
[9]
  GI50: 5.26 µM
  TGI: 20.2 µM
[10]
  GI50: 6.18 µM
  TGI: 23.6 µM
[11]
  GI50: 4.68 µM
  TGI: 50.4 µM
[12]
  GI50: 3.82 µM
  TGI: 18.9 µM
[13]
  GI50: 5.14 µM
  TGI: 24.4 µM
[14]
  GI50: 5.78 µM
  TGI: 21.7 µM
[15]
  GI50: 4.06 µM
  TGI: 24.3 µM
[16]
  GI50: 15.1 µM
  TGI: 33.5 µM
[17]
  GI50: 3.77 µM
  TGI: 26.9 µM
[18]
  GI50: 0.379 µM
  TGI: 16.1 µM
[19]
  GI50: 11.3 µM
  TGI: 26.2 µM
[20]
  GI50: 0.92 µM
  TGI: 18.5 µM
[21]
  GI50: 4.61 µM
  TGI: 25.8 µM
[22]
  GI50: 5.4 µM
  TGI: 20.8 µM
[23]
  GI50: 10.1 µM
  TGI: 29.7 µM
[24]
  GI50: 10.9 µM
  TGI: 44.5 µM
[25]
  GI50: 6.29 µM
  TGI: 24.4 µM
[26]
  GI50: 5.39 µM
  TGI: 23.3 µM
[27]
  GI50: 6.31 µM
  TGI: 23.1 µM
[28]
  GI50: 4.02 µM
  TGI: 17.9 µM
[29]
  GI50: 13.7 µM
  TGI: 29 µM
[30]
  GI50: 8.72 µM
  TGI: 34 µM
[31]
  GI50: 1.56 µM
  TGI: 8.26 µM
[32]
  GI50: 6.04 µM
  TGI: 19.6 µM
[33]
  GI50: 10.8 µM
  TGI: 27.3 µM
[34]
  GI50: 1.89 µM
  TGI: 12.7 µM
[35]
  GI50: 0.378 µM
  TGI: 14.8 µM
[36]
  GI50: 13.4 µM
  TGI: 36.4 µM
[37]
  GI50: 3.79 µM
  TGI: 18.8 µM
[38]
  GI50: 1.57 µM
  TGI: 8.83 µM
[39]
  GI50: 10.4 µM
  TGI: 30.4 µM
[40]
  GI50: 10.2 µM
  TGI: 26.3 µM
[41]
  GI50: 7.24 µM
  TGI: 21.1 µM
[42]
  GI50: 10.5 µM
  TGI: 24.4 µM
[43]
  GI50: 3.35 µM
  TGI: 14.9 µM
[44]
  GI50: 4.16 µM
  TGI: 26.2 µM
[45]
  GI50: 10.6 µM
  TGI: 24.4 µM
[46]
  GI50: 1.78 µM
  TGI: 7.03 µM
[47]
  GI50: 3 µM
  TGI: 12.7 µM
[48]
  GI50: 3.06 µM
  TGI: 13.9 µM
[49]
  GI50: 10.9 µM
  TGI: 33.7 µM
[50]
  GI50: 2.71 µM
  TGI: 12 µM
[51]
  GI50: 13.1 µM
  TGI: 32.5 µM
[52]
  GI50: 0.403 µM
  TGI: 15.3 µM
[53]
  GI50: 8.24 µM
  TGI: 23.2 µM
[54]
  GI50: 3.48 µM
  TGI: 17.2 µM
[55]
  GI50: 4.47 µM
  TGI: 28.8 µM
[56]
  GI50: 4.58 µM
  TGI: 20.7 µM
[57]
  GI50: 3.6 µM
  TGI: 22.4 µM
[58]
  GI50: 5.32 µM
  TGI: 27.2 µM
[59]
  GI50: 1.99 µM
  TGI: 16.3 µM
